Assay results published in patent US6602888B2, “Use of α1C specific compounds to treat benign prostatic hyperplasia” (Synaptic Pharmaceutical Corporation, priority 1992, dated 2003).
Read-outs that look alike come from different tables or passages of the source.

How the values were obtained:
human 5HT2 receptor = target: T1, human 5HT2 receptor (Homo sapiens, UniProt P28223); test: [3H]ketanserin competition binding, 5HT2 receptor; details: for Ki: read-out: Serotonin 5HT2 (pK1)
T1 construct: host or cells: COS-7 (DEAE-dextran); the same paragraph also names a deposited line L-NGC-5HT2
Procedure: The coding sequence of the human 5HT2 receptor was obtained from a human brain cortex cDNA library, and cloned into the cloning site of pCEXV-3 eukaryotic expression vector. This construct was transfected into COS-7 cells by the DEAE-dextran method. […] Nonspecific binding was defined by the addition of 10 μM mianserin.

calcium channels = target: T2, calcium channels (Rattus norvegicus, UniProt P22002); test: [3H]nitrendipine competition binding, calcium channels, rat cardiac muscle membranes; details: for Ki: read-out: Calcium Channel (pK1) (converted)
T2 construct: from tissue; host or cells: rat cardiac muscle membranes
Procedure: Briefly, the tissue was minced and homogenized in 50 mM Tris-HCl (pH 7.4) containing 0.1 mM phenylmethylsulfonyl fluoride. The homogenates were centrifuged at 1000 g for 15 minutes, the resulting supernatant was centrifuged at 45,000 g for 15 minutes. The 45,000 g pellet was suspended in buffer and centrifuged a second time.

[1] = target: T3, human α1B adrenergic receptor (Homo sapiens, UniProt P35368); test: Radioligand binding, [3H]prazosin, cloned human α1B adrenergic receptor
T3 sequence (P35368 1-520): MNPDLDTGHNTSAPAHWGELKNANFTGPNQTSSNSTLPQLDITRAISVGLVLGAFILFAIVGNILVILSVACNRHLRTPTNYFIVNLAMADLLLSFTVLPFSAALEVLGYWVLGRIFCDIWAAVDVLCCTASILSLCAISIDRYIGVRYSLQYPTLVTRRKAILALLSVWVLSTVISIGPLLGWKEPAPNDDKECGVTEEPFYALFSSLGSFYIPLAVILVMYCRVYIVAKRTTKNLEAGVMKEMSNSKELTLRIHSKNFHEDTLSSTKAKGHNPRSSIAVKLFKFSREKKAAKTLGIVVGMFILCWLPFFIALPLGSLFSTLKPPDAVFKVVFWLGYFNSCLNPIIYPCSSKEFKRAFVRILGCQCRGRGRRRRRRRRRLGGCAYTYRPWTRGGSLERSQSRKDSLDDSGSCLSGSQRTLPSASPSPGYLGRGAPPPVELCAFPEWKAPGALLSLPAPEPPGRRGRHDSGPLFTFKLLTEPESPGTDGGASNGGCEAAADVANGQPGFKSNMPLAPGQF

[2] = Table 2, rat cardiac muscle membranes

T2 sequence (P22002 whole entry, other chains not shown): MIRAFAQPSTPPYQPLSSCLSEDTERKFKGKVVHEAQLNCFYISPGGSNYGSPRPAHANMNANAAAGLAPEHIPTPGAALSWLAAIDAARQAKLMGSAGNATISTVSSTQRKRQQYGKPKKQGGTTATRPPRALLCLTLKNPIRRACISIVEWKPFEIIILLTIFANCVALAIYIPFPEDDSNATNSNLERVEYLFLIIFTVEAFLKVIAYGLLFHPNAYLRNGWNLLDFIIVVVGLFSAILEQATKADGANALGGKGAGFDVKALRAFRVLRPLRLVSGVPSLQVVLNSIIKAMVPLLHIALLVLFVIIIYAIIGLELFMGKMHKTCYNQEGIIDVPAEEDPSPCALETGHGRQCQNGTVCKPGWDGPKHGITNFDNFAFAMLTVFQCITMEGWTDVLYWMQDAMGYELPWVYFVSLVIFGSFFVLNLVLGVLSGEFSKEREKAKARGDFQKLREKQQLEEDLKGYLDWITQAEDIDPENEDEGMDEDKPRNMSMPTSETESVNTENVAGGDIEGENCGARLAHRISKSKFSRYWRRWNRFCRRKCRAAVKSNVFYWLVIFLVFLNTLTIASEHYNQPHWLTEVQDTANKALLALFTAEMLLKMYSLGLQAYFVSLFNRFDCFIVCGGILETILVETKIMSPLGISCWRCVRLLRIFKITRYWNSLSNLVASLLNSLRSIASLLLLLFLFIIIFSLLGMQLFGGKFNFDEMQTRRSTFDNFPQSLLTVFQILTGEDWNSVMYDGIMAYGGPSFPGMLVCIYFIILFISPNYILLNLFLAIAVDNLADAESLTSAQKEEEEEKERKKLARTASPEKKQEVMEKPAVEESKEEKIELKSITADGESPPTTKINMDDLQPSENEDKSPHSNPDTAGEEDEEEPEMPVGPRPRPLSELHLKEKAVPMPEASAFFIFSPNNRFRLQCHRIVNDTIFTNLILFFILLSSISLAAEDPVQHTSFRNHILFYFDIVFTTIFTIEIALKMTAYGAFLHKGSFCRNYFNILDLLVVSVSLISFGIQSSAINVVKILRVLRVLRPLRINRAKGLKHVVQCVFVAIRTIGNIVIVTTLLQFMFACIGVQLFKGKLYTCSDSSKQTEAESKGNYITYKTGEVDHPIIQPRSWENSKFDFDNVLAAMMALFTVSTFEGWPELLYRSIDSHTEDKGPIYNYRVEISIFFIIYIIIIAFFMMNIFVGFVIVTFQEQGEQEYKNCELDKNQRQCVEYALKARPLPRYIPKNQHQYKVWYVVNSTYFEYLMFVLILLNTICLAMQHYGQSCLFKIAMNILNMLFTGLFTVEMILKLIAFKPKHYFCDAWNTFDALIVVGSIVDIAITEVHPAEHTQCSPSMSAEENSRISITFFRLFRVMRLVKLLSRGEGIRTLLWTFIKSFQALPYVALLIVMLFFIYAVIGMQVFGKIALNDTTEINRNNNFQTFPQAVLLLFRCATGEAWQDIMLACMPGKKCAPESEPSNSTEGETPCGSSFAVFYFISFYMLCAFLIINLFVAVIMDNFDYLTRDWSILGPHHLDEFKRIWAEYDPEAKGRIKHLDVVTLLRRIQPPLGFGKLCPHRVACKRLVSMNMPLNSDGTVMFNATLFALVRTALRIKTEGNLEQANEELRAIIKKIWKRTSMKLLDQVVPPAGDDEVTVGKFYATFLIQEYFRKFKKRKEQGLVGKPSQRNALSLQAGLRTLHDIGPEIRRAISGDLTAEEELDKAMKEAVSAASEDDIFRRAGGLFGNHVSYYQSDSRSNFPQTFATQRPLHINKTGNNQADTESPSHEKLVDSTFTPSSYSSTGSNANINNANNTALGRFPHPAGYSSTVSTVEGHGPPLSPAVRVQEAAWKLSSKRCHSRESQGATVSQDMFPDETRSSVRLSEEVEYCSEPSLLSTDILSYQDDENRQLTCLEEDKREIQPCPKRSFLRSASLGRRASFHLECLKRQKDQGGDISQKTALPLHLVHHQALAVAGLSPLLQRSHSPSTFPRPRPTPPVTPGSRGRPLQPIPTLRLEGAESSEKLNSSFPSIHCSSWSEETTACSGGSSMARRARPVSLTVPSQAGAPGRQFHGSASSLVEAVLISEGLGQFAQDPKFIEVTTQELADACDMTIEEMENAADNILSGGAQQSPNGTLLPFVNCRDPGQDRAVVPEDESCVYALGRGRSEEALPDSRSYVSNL
T2 sequence (P54290 25-944 partner limits assumed, other chains not shown): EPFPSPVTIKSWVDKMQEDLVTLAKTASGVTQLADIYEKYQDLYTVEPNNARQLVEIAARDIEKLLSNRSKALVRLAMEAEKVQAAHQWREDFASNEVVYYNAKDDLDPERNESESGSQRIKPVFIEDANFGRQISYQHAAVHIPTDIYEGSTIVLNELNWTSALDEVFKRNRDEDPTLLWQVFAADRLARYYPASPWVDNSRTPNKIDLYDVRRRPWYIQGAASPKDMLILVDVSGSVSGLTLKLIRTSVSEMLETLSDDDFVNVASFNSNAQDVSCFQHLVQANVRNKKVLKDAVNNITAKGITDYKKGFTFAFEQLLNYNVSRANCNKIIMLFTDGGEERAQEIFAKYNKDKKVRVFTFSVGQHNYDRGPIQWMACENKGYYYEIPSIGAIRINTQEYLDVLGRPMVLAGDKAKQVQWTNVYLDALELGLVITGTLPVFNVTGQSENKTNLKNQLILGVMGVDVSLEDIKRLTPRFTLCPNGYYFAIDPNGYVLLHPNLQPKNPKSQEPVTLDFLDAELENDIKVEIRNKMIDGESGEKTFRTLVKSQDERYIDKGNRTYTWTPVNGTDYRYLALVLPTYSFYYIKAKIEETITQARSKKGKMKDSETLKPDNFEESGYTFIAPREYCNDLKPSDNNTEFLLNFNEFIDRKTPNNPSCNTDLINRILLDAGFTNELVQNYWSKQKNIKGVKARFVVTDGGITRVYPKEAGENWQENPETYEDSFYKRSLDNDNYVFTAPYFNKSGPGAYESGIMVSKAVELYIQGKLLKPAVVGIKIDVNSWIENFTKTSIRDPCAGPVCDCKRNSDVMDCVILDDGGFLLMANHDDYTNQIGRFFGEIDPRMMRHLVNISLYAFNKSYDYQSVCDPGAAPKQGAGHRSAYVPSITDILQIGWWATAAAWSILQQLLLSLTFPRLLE
T2 sequence (P54290 945-1091 partner limits assumed, other chains not shown): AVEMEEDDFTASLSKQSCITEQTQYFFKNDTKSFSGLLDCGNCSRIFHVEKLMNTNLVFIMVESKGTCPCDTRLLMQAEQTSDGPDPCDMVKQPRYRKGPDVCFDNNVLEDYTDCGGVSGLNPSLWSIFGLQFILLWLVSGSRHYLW
T1 sequence (P28223 whole entry): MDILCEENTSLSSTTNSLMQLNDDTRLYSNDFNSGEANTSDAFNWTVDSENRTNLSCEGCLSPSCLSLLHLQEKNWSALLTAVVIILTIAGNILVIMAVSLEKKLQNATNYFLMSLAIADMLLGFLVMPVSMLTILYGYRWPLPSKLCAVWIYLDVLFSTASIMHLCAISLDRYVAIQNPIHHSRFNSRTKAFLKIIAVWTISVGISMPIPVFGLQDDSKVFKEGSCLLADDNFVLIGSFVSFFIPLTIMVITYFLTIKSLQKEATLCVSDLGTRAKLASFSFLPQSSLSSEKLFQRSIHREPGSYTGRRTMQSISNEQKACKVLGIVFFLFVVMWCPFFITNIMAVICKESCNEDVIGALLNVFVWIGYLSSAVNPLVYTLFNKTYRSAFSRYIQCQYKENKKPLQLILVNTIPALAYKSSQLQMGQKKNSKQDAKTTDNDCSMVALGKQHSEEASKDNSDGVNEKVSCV

Row | Compound | Ki (human 5HT2 receptor; Table 2, cloned human receptor) | Ki (calcium channels; [2]) | Serotonin 5HT2 (pK1) (human 5HT2 receptor; Table 2, cloned human receptor) | Alpha-1 Adrenergic a1B (pK1) ([1]; Table 2, cloned human receptor) | Calcium Channel (pK1) (calcium channels; [2]) | further results
1 | C=Cc1sc2ccc(Cl)c3c2c1CN(C)CC3 [SKF-104856, 7-Chloro-2-ethenyl-3,4,5,6-tetrahydro-4-methylthieno[4,3,2-ef][3]benzazepine, reference compound] | > 1 µM | 20.9 µM | – | – | – | –
2 | O=C(NC1CCN(CCc2c[nH]c3ccccc23)CC1)c1ccccc1 [Indoramin, reference compound] | > 0.1 µM | 29.5 µM | – | – | – | –
3 | COc1ccccc1N1CCN(CCCNc2c(C)c(=O)n(C)c(=O)n2C)CC1 [5-Methyl-Urapidil, 5-methylurapidil, reference compound] | – | – | <6.0 | – | – | Alpha-1 Adrenergic a1B (pK1) [1]: 6.77; Human Alpha-1 Adrenergic (pK1) a1B [1]: 6.77
4 | O=C(CCCN1CCC(NC(=O)c2ccccc2)CC1)c1ccccc1 [Compound 9] | – | – | <7.0 | 6.76 | 4.44 | Human Alpha-1 Adrenergic (pK1) a1B ([1]; Table 1, cloned human receptor): 6.76
5 | O=C(CCCN1CCC(NC(=O)c2ccccc2)CC1)c1ccc(Cl)cc1 [Compound 7] | – | – | <6.0 | 7.18 | 4.79 | Human Alpha-1 Adrenergic (pK1) a1B ([1]; Table 1, cloned human receptor): 7.18
6 | COC(=O)C1=C(C)NC(C)=C(C(=O)OCCCN2CCC(c3ccccc3)(c3ccccc3)CC2)C1c1ccc([N+](=O)[O-])cc1.Cl (stereo not shown) [Compound 8, 2,6-Dimethyl-4-(4-nitrophenyl)-1,4-dihydropyridine-3,5-dicarboxylic acid [3-(4,4-diphenylpiperidin-1-yl)propyl] ester methyl ester hydrochloride] | > 0.1 µM | – | – | – | 6.87 | –
7 | 4-fluoro-4-(8-fluoro-1,3,4,5-tetrahydro-2H-pyrido[4,3-b]indol-2-yl)butyrophenone hydrochloride [Compound A-30360, reference compound] | – | – | – | – | – | Serotonin 5HT2 (pK1) (human 5HT2 receptor): <8.0; Alpha-1 Adrenergic a1B (pK1) [1]: 7.86; Human Alpha-1 Adrenergic (pK1) a1B [1]: 7.86; Calcium Channel (pK1) (calcium channels): 5.26
8 | COc1ccc(CCNCC2CCc3ccccc3C2)cc1 (stereo not shown) [Compound 11, 2-[(4-Methoxyphenethyl)aminomethyl]-1,2,3,4-tetrahydronaphthalene] | > 0.1 µM | 6.61 µM | – | 7.14 | – | Ki [1]: 0.0724 µM
